Data reported in patent US20190175601A1, “COMPOSITION FOR INHIBITING OR ALLEVIATING ITCHING INCLUDING RIBOFLAVIN” (INDUSTRY-UNIVERSITY COOPERATION FOUNDATION HANYANG …, priority 2016, published 2019).

Experiments:
[1] = system: skin-afferent nerve tissue; experiment: Histamine-induced peripheral nerve activity in preserved skin-afferent nerve tissue; details: histamine administered to the sole of the foot; FIG. 3
Protocol: Histamine-induced itching is known to occur through peripheral nerve excitation. In the present experimental example, it was examined whether histamine-induced peripheral nerve activity was blocked by riboflavin.
After securing preserved skin-afferent nerve tissue, histamine was administered to the sole of the foot to confirm nerve activity, and such histamine-induced nerve activity was blocked by riboflavin (see FIG. 3).

[2] = target: T1, TRPV1 (Homo sapiens, UniProt Q8NER1); experiment: Capsaicin current blocking in TRPV1-expressing HEK293 cells; type: cell-based; details: TRPV1-expressing HEK 293 cells
T1 construct: expressed in transfected cells; host or cells: HEK 293 cells
Description: TRPV1 was expressed in HEK 293 cells to carry out a capsaicin current blocking experiment. Under these conditions, riboflavin excluded other channels and a direct effect of riboflavin was examined. The results are illustrated in FIG. 5. FIG. 5 illustrates results of confirming that a capsaicin-induced current was inhibited by riboflavin.

[3] = system: histamine-induced itching; experiment: Histamine-induced itching animal behavioral test, local intradermal injection co-administered with histamine; type: in vivo, male C57BL/6 mice; details: 1 μM/50 μl intradermal, at the same time as histamine 100 μg/site; FIG. 2
Protocol: An effect of inhibiting or alleviating itching was tested using the local intradermal injection prepared according to Preparation Example 1.
The test was carried out in the same manner as in Experimental Example 1, except for the following. For the itching-induced animal behavioral model test, 1 μM/50 μl of the local intradermal injection prepared according to Preparation Example 1 was injected intradermally into the back of the neck of each mouse. In addition, upon administration of the preparation, 50 μl (100 μg/site) of histamine was injected intradermally at the same time.

[4] = system: histamine-induced itching; experiment: Histamine-induced itching animal behavioral test, preparations for oral administration; type: in vivo, male C57BL/6 mice; details: FIG. 1
Protocol: An effect of inhibiting or alleviating itching was tested using the preparations for oral administration prepared according to Preparation Example 1. For the test, an animal behavioral test was performed using the mouse model disclosed in Non-Patent Document 6.
Groups each including 10 male C57BL/6 mice weighing 20 g to 23 g were used in the test. These groups were accommodated under control of a temperature of 23° C. to 25° C. The mice were freely fed food and water. For the itching-induced animal behavioral model test, the mice were orally administered the preparations for oral administration having different concentrations of riboflavin, which were prepared according to Preparation Example 1 (100 mg/kg, 300 mg/kg, or 600 mg/kg). In addition, the mice were treated with the control prepared according to Preparation Example 1.
To induce scratching, histamine, which is known to cause an itching sensation in humans, was used. At this time, histamine was dissolved in sterile physiological saline. 30 minutes after administration of the preparations for oral administration, 50 μl (500 μg/site) of histamine was injected intradermally into the back of the neck of each mouse.
The results were analyzed by calculating the mean and standard deviation, and a statistical difference of mean values was determined using a Student's t-test.

[5] = system: spinal cord dorsal root ganglion cells; experiment: Histamine-induced current, membrane voltage clamp method; type: cell-based; details: primary cultured mouse dorsal root ganglion cells, FIG. 4
Protocol: In addition, to confirm an effect of riboflavin on blocking histamine-induced peripheral nerve activity, it was examined using a membrane voltage clamp method whether a histamine-induced current was inhibited by riboflavin.
To this end, spinal cord dorsal root ganglion cells of each mouse were isolated and primarily cultured, and then electrophysiological characteristics of the spinal cord dorsal root ganglion cells were recorded using the membrane voltage clamp method.

[6] = system: histamine-induced itching; experiment: Histamine-induced itching animal behavioral test, preparation for transdermal administration; type: in vivo, male C57BL/6 mice
Protocol: An effect of inhibiting or alleviating itching was tested using the preparation for transdermal administration prepared according to Preparation Example 2. For the test, an animal behavioral experiment was carried out in the same manner as in Experimental Example 1.
In particular, 30 minutes before 100 μg/50 μl of histamine was injected, the preparation for transdermal administration was applied on the skin, and then the preparation was removed 5 minutes before histamine was injected.

T1 sequence (Q8NER1 whole entry, species assumed): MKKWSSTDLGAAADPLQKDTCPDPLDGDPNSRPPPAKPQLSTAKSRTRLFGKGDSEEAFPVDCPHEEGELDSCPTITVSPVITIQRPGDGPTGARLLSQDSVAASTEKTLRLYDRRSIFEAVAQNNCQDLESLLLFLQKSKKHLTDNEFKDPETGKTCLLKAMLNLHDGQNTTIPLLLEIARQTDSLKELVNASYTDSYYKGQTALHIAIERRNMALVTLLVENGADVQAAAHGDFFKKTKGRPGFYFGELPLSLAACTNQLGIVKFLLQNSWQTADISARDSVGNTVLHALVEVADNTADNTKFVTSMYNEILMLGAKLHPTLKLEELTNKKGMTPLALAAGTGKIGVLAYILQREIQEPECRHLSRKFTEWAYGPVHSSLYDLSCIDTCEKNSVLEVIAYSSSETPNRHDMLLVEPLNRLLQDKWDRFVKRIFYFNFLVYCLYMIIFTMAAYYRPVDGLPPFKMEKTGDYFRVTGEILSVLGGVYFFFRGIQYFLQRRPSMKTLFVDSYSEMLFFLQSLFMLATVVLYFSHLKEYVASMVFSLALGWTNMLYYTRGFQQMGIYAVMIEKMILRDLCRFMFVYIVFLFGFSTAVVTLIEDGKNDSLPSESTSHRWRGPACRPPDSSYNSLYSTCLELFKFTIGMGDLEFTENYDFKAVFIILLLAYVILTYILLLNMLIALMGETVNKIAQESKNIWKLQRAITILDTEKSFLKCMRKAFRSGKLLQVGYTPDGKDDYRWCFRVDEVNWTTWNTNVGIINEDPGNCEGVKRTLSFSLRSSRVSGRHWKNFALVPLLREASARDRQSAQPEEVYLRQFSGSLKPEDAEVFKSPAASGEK

Row | capsaicin-induced current blocking effect at 100 nM ([2]; 100 nM) | SMILES | histamine-induced nerve activity [1] | capsaicin-induced current blocking effect ([2]; several concentrations, FIG. 5) | histamine-induced itching responses (number of scratches) [3] | dose dependence of effect on inhibiting histamine-induced itching ([4]; oral 100, 300, 600 mg/kg) | histamine-induced itching responses (number of scratches) ([4]; oral 100, 300 or 600 mg/kg, 30 minutes before histamine 500 μg/site intradermal, observed 30 minutes) | histamine-induced inward current [5] | histamine-induced itching responses ([6]; 1 mM in Vaseline cream on skin 30 minutes before histamine 100 μg/50 μl, removed 5 minutes before, observed 30 minutes, FIG. 8) | itching behavioral responses (number of times) ([6]; 1 mM transdermal preparation, control 142 times, 30 minutes)
1 | did not effectively block TRPV1 | Cc1cc2nc3c(=O)[nH]c(=O)nc-3n(C[C@H](O)[C@H](O)[C@H](O)CO)c2cc1C [riboflavin] | blocked | statistically significant effect of blocking channels in a concentration-dependent manner | itching responses were reduced | dose-dependent pattern | itching responses were reduced | the current is blocked | – | –
2 | – | Cc1cc2nc3c(=O)[nH]c(=O)nc-3n(C[C@H](O)[C@H](O)[C@H](O)CO)c2cc1N(C)C [roseoflavin, 8-demethyl-8-(dimethylamino)-riboflavin] | – | – | – | – | – | – | itching responses were reduced | 60 times
